Patent US20060148858A1, “1, 2-Azole derivatives with hypoglycemic and hypolipidemic activity” (priority 2002, published 2006)

Structure (SMILES) | melting point
CCOc1nn(-c2ccc(C(F)(F)F)cn2)cc1CCCOc1ccc(OC)cc1CC(=O)O [Example 132, [2-(3-{3-ethoxy-1-[5-(trifluoromethyl)-2-pyridyl]-1H-pyrazol-4-yl}propoxy)-5-methoxyphenyl]acetic acid] | 138 to 139 °C
CC(C)(Oc1cccc(OCCCc2cn(-c3ccc(C(F)(F)F)cn3)nc2-c2ccccc2)c1)C(=O)O [Example 133, 2-methyl-2-[3-(3-{3-phenyl-1-[5-(trifluoromethyl)-2-pyridyl]-1H-pyrazol-4-yl}propoxy)phenoxy]propionic acid] | 141 to 142 °C
O=C(O)Cc1ccccc1OCCCc1cn(-c2ccc(C(F)(F)F)cn2)nc1-c1ccccc1 [Example 134, [2-(3-{3-phenyl-1-[5-(trifluoromethyl)-2-pyridyl]-1H-pyrazol-4-yl}propoxy)phenyl]acetic acid] | 133 to 134 °C
CCOc1nn(-c2ccc(C(F)(F)F)cn2)cc1CCCOc1nn(C)cc1CC(=O)O [Example 135, [3-(3-{3-ethoxy-1-[5-(trifluoromethyl)-2-pyridyl]-1H-pyrazol-4-yl}propoxy)-1-methyl-1H-pyrazol-4-yl]acetic acid] | 115 to 116 °C
CCOc1nn(-c2ccc(C(F)(F)F)cn2)cc1CCCOc1nn(-c2ccccc2)cc1CC(=O)O [Example 136, [3-(3-{3-ethoxy-1-[5-(trifluoromethyl)-2-pyridyl]-1H-pyrazol-4-yl}propoxy)-1-phenyl-1H-pyrazol-4-yl]acetic acid] | 117 to 118 °C
CCOc1nn(-c2ccc(C(F)(F)F)cn2)cc1CCCOc1ccc(Cl)cc1CC(=O)O [Example 139, [5-chloro-2-(3-{3-ethoxy-1-[5-(trifluoromethyl)-2-pyridyl]-1H-pyrazol-4-yl}propoxy)phenyl]acetic acid] | 130 to 131 °C
CCOc1ccc(OCCCc2cn(-c3ccc(C(F)(F)F)cn3)nc2OCC)c(CCC(=O)O)c1 [Example 140, 3-[2-(3-{3-ethoxy-1-[5-(trifluoromethyl)-2-pyridyl]-1H-pyrazol-4-yl}propoxy)-5-ethoxyphenyl]propionic acid] | 104 to 105 °C
Cc1nn(-c2ccc(C(F)(F)F)cn2)cc1CCCOc1ccccc1CC(=O)O [Example 141, [2-(3-{3-methyl-1-[5-(trifluoromethyl)-2-pyridyl]-1H-pyrazol-4-yl}propoxy)phenyl]acetic acid] | 128 to 129 °C
CCOc1nn(-c2ccc(C(F)(F)F)cn2)cc1CCCOc1cc(OC)ccc1CC(=O)O [Example 142, [2-(3-{3-ethoxy-1-[5-(trifluoromethyl)-2-pyridyl]-1H-pyrazol-4-yl}propoxy)-4-methoxyphenyl]acetic acid] | 147 to 148 °C
CCOc1nn(-c2ccc(C(F)(F)F)cn2)cc1CCCOc1cc(OC)ccc1CCC(=O)O [Example 143, 3-[2-(3-{3-ethoxy-1-[5-(trifluoromethyl)-2-pyridyl]-1H-pyrazol-4-yl}propoxy)-4-methoxyphenyl]propionic acid] | 115 to 116 °C
CCOc1nn(-c2ccc(C(F)(F)F)cn2)cc1CCCOc1ccccc1CCC(=O)O [Example 144, 3-[2-(3-{3-ethoxy-1-[5-(trifluoromethyl)-2-pyridyl]-1H-pyrazol-4-yl}propoxy)phenyl]propionic acid] | 93 to 94 °C
CCOc1nn(-c2ccc(C(F)(F)F)cn2)cc1CCCOc1c(CCC(=O)O)cccc1OC [Example 145, 3-[2-(3-{3-ethoxy-1-[5-(trifluoromethyl)-2-pyridyl]-1H-pyrazol-4-yl}propoxy)-3-methoxyphenyl]propionic acid] | 87 to 88 °C
CCCc1nn(-c2ccc(C(F)(F)F)cn2)cc1COc1cccc(CC(=O)O)c1 [Example 147, [3-({3-propyl-1-[5-(trifluoromethyl)-2-pyridyl]-1H-pyrazol-4-yl}methoxy)phenyl]acetic acid] | 77 to 78 °C
CCOc1nn(-c2ccc(C(F)(F)F)cn2)cc1CCCOc1cccc(OC)c1CCC(=O)O [Example 148, 3-[2-(3-{3-ethoxy-1-[5-(trifluoromethyl)-2-pyridyl]-1H-pyrazol-4-yl}propoxy)-6-methoxyphenyl]propionic acid] | 110 to 111 °C
Cc1nn(-c2ccc(C(F)(F)F)cn2)cc1COc1cccc(CC(=O)O)c1 [Example 149, [3-({3-methyl-1-[5-(trifluoromethyl)-2-pyridyl]-1H-pyrazol-4-yl}methoxy)phenyl]acetic acid] | 142 to 143 °C
CCOc1cc(OCCCc2cn(-c3ccc(C(F)(F)F)cn3)nc2O)ccc1CCC(=O)O [Example 151, 3-[2-ethoxy-4-(3-{3-hydroxy-1-[5-(trifluoromethyl)-2-pyridyl]-1H-pyrazol-4-yl}propoxy)phenyl]propanoic acid] | 192 to 194 °C
CCOc1cc(OCCCc2cn(-c3ccc(C(F)(F)F)cn3)nc2OCc2ccccc2)ccc1CCC(=O)O [Example 156, 3-[4-(3-{3-benzyloxy-1-[5-(trifluoromethyl)-2-pyridyl]-1H-pyrazol-4-yl}propoxy)-2-ethoxyphenyl]propanoic acid] | 106 to 107 °C
CCCc1nn(-c2ccc(C(F)(F)F)cn2)cc1CCCOc1cccc(C(C)(C)C(=O)O)c1 [Example 159, 2-methyl-2-[3-(3-{3-propyl-1-[5-(trifluoromethyl)-2-pyridyl]-1H-pyrazol-4-yl}propoxy)phenyl]propanoic acid] | 82 to 83 °C
CCOc1nn(-c2ccc(C(F)(F)F)cn2)cc1CCCOc1cccc(C(C)(C)C(=O)O)c1 [Example 160, 2-[3-(3-{3-ethoxy-1-[5-(trifluoromethyl)-2-pyridyl]-1H-pyrazol-4-yl}propoxy)phenyl]-2-methylpropanoic acid] | 131 to 132 °C
CCOc1nn(-c2ccc(C(F)(F)F)cn2)cc1CCCOc1ccc(CCC(=O)O)cc1O [Example 161, 3-[4-(3-{3-ethoxy-1-[5-(trifluoromethyl)-2-pyridyl]-1H-pyrazol-4-yl}propoxy)-3-hydroxyphenyl]propanoic acid] | 124 to 125 °C
CCOc1cc(CCC(=O)O)ccc1OCCCc1cn(-c2ccc(C(F)(F)F)cn2)nc1OCC [Example 162, 3-[3-ethoxy-4-(3-{3-ethoxy-1-[5-(trifluoromethyl)-2-pyridyl]-1H-pyrazol-4-yl}propoxy)phenyl]propanoic acid] | 114 to 115 °C
CCCOc1cc(CCC(=O)O)ccc1OCCCc1cn(-c2ccc(C(F)(F)F)cn2)nc1OCC [Example 163, 3-[4-(3-{3-ethoxy-1-[5-(trifluoromethyl)-2-pyridyl]-1H-pyrazol-4-yl}propoxy)-3-propoxyphenyl]propanoic acid] | 106 to 107 °C
CCOc1nn(-c2ccc(C(F)(F)F)cn2)cc1CCCOc1ccc(CCC(=O)O)cc1OC(C)C [Example 164, 3-[4-(3-{3-ethoxy-1-[5-(trifluoromethyl)-2-pyridyl]-1H-pyrazol-4-yl}propoxy)-3-isopropoxyphenyl]propanoic acid] | 93 to 94 °C
CCCCOc1cc(CCC(=O)O)ccc1OCCCc1cn(-c2ccc(C(F)(F)F)cn2)nc1OCC [Example 165, 3-[3-butoxy-4-(3-{3-ethoxy-1-[5-(trifluoromethyl)-2-pyridyl]-1H-pyrazol-4-yl}propoxy)phenyl]propanoic acid] | 92 to 93 °C
